{"source": "patent US20200147233A1", "about": "“METHOD FOR KILLING TUMOR CELLS AND COMPOSITION USED THEREFOR” (PhotoQ3 Inc., priority 2018, published 2020)", "key": {"SAS cells": {"tested_on": "SAS cells", "test": "Cytotoxicity of AlPcS2a itself (photosensitizer tolerance)", "type": "cell-based", "conditions": "AlPcS2a alone with light", "method": "For the purpose of increasing IT-Robo 1 internalization efficiency, the present inventors have used AlPcS2a, which forms reactive oxygen species as a result of light irradiation and induces destruction of endosome. At first, the cytotoxicity of AlPcS2a itself was examined, and the optimal concentration to various cells was then determined."}, "[1]": {"tested_on": "HSQ-89 cell line xenograft", "test": "Antitumor effects of combined use of IT-Robo1 and PCI on HSQ-89 cell line xenograft mice", "type": "in vivo", "method": "A supernatant was aspirated from a 10 cmφ dish, in which the HSQ-89 cell line was cultured, and was then washed with D-PBS (Dulbecco's phosphate buffer). Thereafter, 1 ml of 2.5 g/l trypsin/1 mM EDTA solution was added to the resultant, and the obtained mixture was then left at rest for several minutes in a CO2 incubator. After confirming that the cells were peeled from the bottom surface of the dish, 9 ml of the culture solution was added, and centrifugation was then performed at 1,000 rpm at 4° C. for 5 minutes. After that, a supernatant was aspirated, 10 ml of PBS was then added thereto, and the obtained mixture was then centrifuged at 1,000 rpm at 4° C. for 5 minutes. Thereafter, a supernatant was aspirated, 10 ml of PBS was added thereto, and the number of cells was then counted. Again, 10 ml of PBS was added to the cells, and the obtained mixture was then centrifuged at 1,000 rpm at 4° C. for 5 minutes. Thereafter, a supernatant was aspirated, and PBS was added thereto to a cell density of 2×10^7 cell/ml. Basement Membrane Matrix Gel (Corning, N.Y.) that had been cooled on ice was added in an equal amount, and 2×10^6 cells/200 μl were then collected using a 23G needle and a 1-ml syringe that had been cooled on ice. Subsequently, the collected cells were subcutaneously administered (SC) to the right shoulder of 6-weel-old male BALB/cSlc-nu/nu mice to produce xenograft mice (cancer-bearing mice). The size of a tumor was calculated according to the following equation:\nTumor size=π/6×Height (mm)×Width (mm)×Depth (mm) […]\nWith reference to “Guidelines for Proper Conduct of Animal Experiments (2006)” established by Science Council of Japan, a tumor with a size of 1,000 mm^3 or more, or a drastic reduction in body weight (a reduction of 25% or more of body weight for a week) was set at endpoint, and the mice were euthanized by cervical dislocation. The measurement of a tumor size and evaluation of the body weight were carried out over time, and at the endpoint, the size and weight of the tumor and the body weight were evaluated."}}}
{"substance": "aluminum phthalocyanine disulfonic acid [AlPcS2a]", "values": [{"measurement": "sensitivity of cells to photosensitizer treatment", "setting": "SAS cells", "value": "weak to the treatment with a photosensitizer"}, {"measurement": "ulcer and crust formation at irradiated site", "setting": "[1]; about two days after the irradiation", "value": "an ulcer was formed at the cancer protrusion site"}, {"measurement": "edema at irradiated site", "setting": "[1]; after local irradiation with 650 nm, for several days from the next day, gradually reduced", "value": "edema was found at the irradiated sites and the surrounding portions thereof"}, {"measurement": "time until crust fell off after crust formation", "setting": "[1]; mouse, in vivo", "value": 10, "unit": "days"}]}
